Experimental data taken from US20220136033A1, “Kits and Assays for Determining Bacterial Cell Viability” (priority 2020, published 2022).
Several values for one entry are separate records, joined by “and”; a condition that tells them apart may be missing. Equal entries are not always repeated. Structures can show the parent of a compound that is named as a salt. One block for each compound: values may come before it.

Tests used:
[1] = system: Gram-negative and Gram-positive bacteria; experiment: Bright-field microscopy viability staining with erythrosin B; format: cell-based
Experimental: Growth and treatments of bacteria. To prepare cells for viability studies, 3 mL overnight bacterial cultures were grown in Luria Broth. Fresh 5 mL cultures were inoculated from the overnight cultures and grown for 1 to 4 hours until reaching an OD600 of 0.4-1.1. Cells were harvested by centrifugation (15,000 g for 4 minutes) and then resuspended in phosphate buffered saline (PBS). A portion of these cells were kept at room temperature (untreated controls), while the remainder were transferred into separate microfuge tubes for different treatments. For heat shock treatment, microfuge tubes were placed at 70° C. for 30 minutes before returning to room temperature. For ethanol treatment, 100% ethanol (Decon Labs, Inc., PA, USA product number 2716) was added to cell suspensions to a final concentration of 30%. Cell mixtures were incubated at 37° C. for 30 minutes, centrifuged, and then the pellet was resuspended in PBS. For CaCl2 treatment, cells were centrifuged, and the pellet was resuspended in 1 mL of ice-cold 100 mM CaCl2 and left on ice for 45 minutes. After this initial incubation, the cells were centrifuged and resuspended in 1004 of 100 mM CaCl2.
Assaying bacterial viability. For bright-field microscopy assays, 104 of each cell suspension (untreated, heat-shocked, ethanol-treated and CaCl2-treated) was mixed with 104 of 0.08% erythrosin B and incubated for 5 minutes at room temperature. For CaCl2-treated cells, mixtures were placed at 42° C. for 60 seconds before returning to room temperature for the remainder of the incubation. 5 μl of the incubated dye:cell mixtures were taken to prepare wet mounts. Imaging was performed on a […] Olympus BX61 microscope using an UPlanSApo 100X/1.14 NA oil objective lens with an Olympus SC10 camera.

[2] = Excitation and emission spectra comparison; format: physicochemical; settings: approx.
Source text: FIG. 11. The excitation and emission spectra for erythrosin B and propidium iodide, another cell viability dye that works by membrane exclusion, were compared. Erythrosin B has a narrow range for both excitation (approx. 480-550 nm) and emission (approx. 540-610 nm) compared to propidium iodide (excitation of approx. 300-350 nm and 475-575 nnm; emission of approx. 570-750 nm).
Many experiments involving fluorescent molecules, including viability assays, try to multiplex (use more than one fluorescent molecule at a time (e.g., FIG. 12)). A key limitation to the number of different fluorescent molecules that can be simultaneously used is the width of the region(s) of wavelengths for excitation and for emission. By having narrow ranges for both excitation and emission this allows erythrosin B to be more flexible than propidium iodide and potentially be paired with a wider variety of other fluorescent probes.

[3] = Concentration of filtered EB stock solution by A530 reference; format: physicochemical; settings: 0.1% (w/v) preparation in 10 mM Tris pH 7.5, undissolved dye removed by 0.22 μm filter
Experimental: Erythrosin B (EB, Sigma, Mo., USA 200964-5G) was prepared by dissolving powder in 10 mM Tris pH 7.5. Published values of the solubility of EB in aqueous solutions vary and may result from different preparations of the dye and from which supplier it is purchased. A small amount of undissolved dye was present when preparing a 0.1% (w/v) solution. This stock solution was filtered through a 0.22 μm filter to remove undissolved dye. To determine the concentration of this stock solution a fresh, dilute EB solution was prepared in which all dye fully dissolved after 10 minutes of stirring. This dilute solution was serially diluted and A530 readings (the wavelength of maximal absorbance for EB) were collected generating a reference relating EB dye concentration to A530. The filtered, stock solution of EB was then serially diluted, and absorbance values of the dilutions were compared to the reference absorbance values for the dilute solution. The stock EB concentration was determined to be 0.08% and is used throughout this work.

bacteria = experiment: Chemical treatments mildly affecting membrane permeability, EB staining; format: cell-based; settings: 20 mM EDTA, 0.1-0.5% Triton X100, 0.12 M guanidine HCl or 0.1% SDS
Source text: All cell viability assays have limitations. The CFU method can overestimate the proportion of dead cells because any viable cells that are unable to divide, or dividing more slowly than wild-type, fail to form visible colonies and will be scored as dead. Membrane exclusion dyes, such as EB and propidium iodine, can underestimate the proportion of dead cells as recently dead cells may not have sufficiently compromised membranes to allow the dye to enter the cell. […] How other viability methods score dying cells also varies and it is often difficult to accurately quantitate, or distinguish, a dying cell population (4). For membrane-exclusion dyes, the concern is whether the dye enters cells with mildly compromised membranes that may be dying, but not dead.

[4] = system: Staphylococcus epidermidis; experiment: Flow cytometry viability comparison, propidium iodide vs EB-based kit; format: cell-based
Experimental: (§1) Determining bacterial cell viability by a different membrane exclusion dye (propidium iodide, PI) is not reliable for certain bacteria species and under certain growth conditions (10,11). Using an EB dye and adsorbent resin binding step (hereafter referred to as EB-based Kit), it is possible to reliably determine cell viability in these bacteria species (FIG. 9A-L). In these experiments, overnight cultures of Streptococcus mutans (FIG. 9A-F) and Staphylococcus epidermidis (FIG. 9G-L) were grown in Luria Broth. A portion of each culture was killed by treating with ethanol (50% ethanol, for 30 minutes at 30° C.). Overnight cells and ethanol-treated cells were centrifuged (10,000 g for 6 minutes) and then resuspended in phosphate buffered saline. Both cell suspensions were then sonicated to break apart any clusters (10% for 10 seconds). An approximately equal amount of the untreated, living overnight cells and the ethanol-treated, killed cells were mixed to generate a mixed population sample. 100 microliters of each sample (overnight culture, live/dead mixture, and killed cells) were incubated with 100 microliters of an EB-dye solution for 5 minutes. After incubation, 100 microliters of the adsorbent solution was added and gently agitated for 5 minutes on a vortexer. Following agitation, the tubes were left for 5 minutes to allow the adsorbent to settle and 200 microliters of the liquid solution above the adsorbent was transferred to a new tube. These samples were brought up to 1 mL in phosphate buffered saline. For propidium iodide staining, 40 microliters of the sonicated samples (overnight culture, live/dead mixture, and killed cells) were transferred to a fresh tube and brought up to 1 mL in phosphate buffered saline. 1 microliter of propidium iodide was added to each tube and incubated for 15 minutes before analyzing all samples by flow cytometry (FIGS. 9A-F for Streptococcus mutans and FIGS. 9G-L for Staphylococcus epidermidis).

Streptococcus mutans = experiment: as above; format: cell-based; settings: >90% alive by CFU, 30,000 events
Experimental: as §1

Compound: O.O=C([O-])c1ccccc1-c1c2cc(I)c(=O)c(I)c-2oc2c(I)c([O-])c(I)cc12.[Na+].[Na+] [EB, Erythrosin B]
- dye-positive cells after CaCl2 treatment ([1]; CaCl2-treated cells): not all treated cells were dye positive
- time until clear differences between dye-negative and dye-positive cells were visible ([1]; dye incubation, bright-field): ≤ 5 min
- dye-positive cells after heat shock or ethanol treatment ([1]; heat shocked and ethanol-treated organisms): virtually all treated cells were dye-positive
- healthy cells dye-positive by bright-field microscopy when incubated with EB ([1]; untreated cells, all species examined): < 3%
- emission range [2]: 540-610 nm
- excitation range [2]: 480-550 nm
- stock EB concentration [3]: 0.08%

Compound: O=C(O)CN(CCN(CC(=O)O)CC(=O)O)CC(=O)O [EDTA]
- increase in dye-positive live cells after chemical treatment (bacteria): did not result in an observable increase in dye-positive live cells

- emission range [2]: 570-750 nm
- excitation range [2]: 300-350 nm and 475-575 nm
Compound: CC[N+](C)(CC)CCC[n+]1c(-c2ccccc2)c2cc(N)ccc2c2ccc(N)cc21.[I-].[I-] [PI, propidium iodide]
- cells dead, Live/Dead Mixture sample ([4]; near-equal mixture of live and ethanol-killed cells): 95%
- cells dye-positive (dead), overnight culture ([4]; overnight culture, >90% alive by CFU, 30,000 events): ~61%
- cells dye-positive (dead), overnight culture (Streptococcus mutans): virtually all cells

Compound: CCCCCCCCCCCCOS(=O)(=O)[O-].[Na+] [SDS]
- increase in dye-positive live cells after chemical treatment (bacteria): did not result in an observable increase in dye-positive live cells

Compound: N=C(N)N [guanidine HCl]
- increase in dye-positive live cells after chemical treatment (bacteria): did not result in an observable increase in dye-positive live cells

Compound: Triton X100
- increase in dye-positive live cells after chemical treatment (bacteria): did not result in an observable increase in dye-positive live cells
